Measured values as given in BindingDB's records for doi:10.1021/jm00122a003 (Tanabe Seiyaku, 1989).

Each compound was assayed against Angiotensin-converting enzyme (Sus scrofa) (assay: Inhibitory activity on Angiotensin I converting enzyme (ACE) obtained from pig renal cortex and hippuryl-histidyl-leucine as substrate).

Row | IC50 [nM] | Compound
1 | 1500 | C[C@H](N)C(=O)N1C(=O)N(Cc2ccccc2)C[C@H]1C(=O)O
2 | 2.1 | CCCCCCCC[C@H](N[C@@H](CC)C(=O)N1C(=O)N(Cc2ccccc2)C[C@H]1C(=O)O)C(=O)O

Target: Angiotensin-converting enzyme (Sus scrofa)
Assay: as above
Remark: another data set of the same source

Row | Compound | IC50 [nM]
3 | C[C@@H](N[C@@H](CCc1ccccc1)C(=O)O)C(=O)N1C(=O)N(Cc2ccccc2)C[C@H]1C(=O)O | 2400
4 | CCCCCCCC[C@H](N[C@@H](C)C(=O)N1C(=O)N(C)C[C@H]1C(=O)O)C(=O)OCC | 5100
5 | C[C@H](N[C@@H](Cc1ccccc1)C(=O)O)C(=O)N1C(=O)N(Cc2ccccc2)C[C@H]1C(=O)O | 11
6 | CCOC(=O)[C@H](CCc1ccccc1)N[C@@H](C)C(=O)N1C(=O)N(Cc2ccccc2)C[C@H]1C(=O)O | 7900
7 | CCCCCCCC[C@H](N[C@@H](C)C(=O)N1C(=O)N(Cc2ccccc2)C[C@H]1C(=O)O)C(=O)OCC | 2200

The next lines start with the values.

Row | IC50 [nM] | Compound
8 | 2.4 | CCCCCCCC[C@H](N[C@@H](CC)C(=O)N1C(=O)N(C)C[C@H]1C(=O)O)C(=O)O
9 | 1.5 | CCCCCCCC[C@H](N[C@@H](C)C(=O)N1C(=O)N(Cc2ccccc2)C[C@H]1C(=O)O)C(=O)O
10 | 1.7 | C[C@H](N[C@@H](CCc1ccccc1)C(=O)O)C(=O)N1C(=O)N(Cc2ccccc2)C[C@H]1C(=O)O
11 | 3.3 | CC(C)CC[C@H](N[C@@H](C)C(=O)N1C(=O)N(Cc2ccccc2)C[C@H]1C(=O)O)C(=O)O
12 | 2.3 | CC[C@H](N[C@@H](CCc1ccccc1)C(=O)O)C(=O)N1C(=O)N(Cc2ccccc2)C[C@H]1C(=O)O
13 | 6.7 | CCCCN1C[C@@H](C(=O)O)N(C(=O)[C@H](C)N[C@@H](CCc2ccccc2)C(=O)O)C1=O
14 | 3.5 | C[C@H](N[C@@H](CCc1ccccc1)C(=O)O)C(=O)N1C(=O)NC[C@H]1C(=O)O
15 | 2.1 | CC(C)C[C@H](N[C@@H](C)C(=O)N1C(=O)N(Cc2ccccc2)C[C@H]1C(=O)O)C(=O)O
